Results taken from patent US10039760B2, “Method of using diketopiperazines and composition containing them” (Ampio Pharmaceuticals, Inc., priority 2000, dated 2018).

Tested on: NHBE 6122 normal human bronchial epithelial cells
Assay: PAF-induced release of IL-8 by NHBE 6122 cells (IL-8 ELISA of cell supernatants)
Assay type: cell-based
Method: NHBE 6122 normal human bronchial epithelial cells (Clonetics, San Diego, Calif.) were added to a 24-well tissue culture plate (Falcon, now BD Biosciences, Franklin Lakes, […]) in BEGM (bronchial epithelial growth medium; Clonetics) containing epinephrine (complete medium) at 37° C. and 5% CO2. After adhering, the cells were washed twice with BEGM medium without epinephrine. They were then incubated in complete medium or in complete medium containing 20 μM 3-methyl-2,5-diketopiperazine-6-acetic acid (DA-DKP; preparation described in Example 1, 5; stock solution made in HEPES buffered saline (HBSS; Clonetics) at 4 mM for 20 minutes at 37° C. and 5% CO2. Platelet activating factor (PAF; Sigma, St. Louis, Mo.) dissolved in dimethylsulfoxide (DMSO; tissue culture grade; Sigma, St. Louis, Mo.) was then added to a final concentration of 100 nM or 500 nM, and the cells were incubated for an additional 6 hours at 37° C. and 5% CO2. Medium containing DMSO and HBSS was used as a control.
The concentration of IL-8 in cell supernatants was determined by an ELISA using human IL-8 matched pair antibodies (Endogen, Cambridge, Mass.). The ELISA was performed using an ELISA kit from Endogen, Cambridge, Mass. according to the manufacturer's instructions with the following exceptions: (1) coating antibody at 1 μg/ml; (2) detecting antibody 30 ng/ml; StrepAvidin HRP diluted 1:32,000.

CC1NC(=O)C(CC(=O)O)NC1=O (stereo not shown) [DA-DKP, 3-methyl-2,5-diketopiperazine-6-acetic acid]
IL-8 (Table 1, 20 min pre-incubation with DA-DKP 20 μM, then PAF 100 nM for 6 hours, 20,000 cells/well): 714.91 pg/mL
IL-8 (Table 1, DA-DKP 20 μM alone, no PAF, 20,000 cells/well, 6 hours): 803.11 pg/mL
IL-8 (Table 2, 20 min pre-incubation with DA-DKP 20 μM, then PAF 500 nM for 6 hours, 20,000 cells/well): 542.5 pg/mL
IL-8 (Table 2, DA-DKP 20 μM alone, no PAF, 20,000 cells/well, 6 hours): 837.84 pg/mL
IL-8 (Table 3, DA-DKP 20 μM alone, no PAF, cells split to 5,000 cells/well four days prior, grown to 70% confluence): 184.86 pg/mL
IL-8 (Table 3, pre-incubation with DA-DKP 20 μM, then PAF 100 nM, cells split to 5,000 cells/well four days prior, grown to 70% confluence): 201.93 pg/mL
IL-8 secretion induced by PAF (result in words, pre-incubation of the cells with the diketopiperazine): inhibited

1-O-alkyl-2-acetyl-sn-glycerol-3-phosphorylcholine [PAF, reference compound]
IL-8 (Table 1, PAF 100 nM alone, 20,000 cells/well, 6 hours): 1094.68 pg/mL
IL-8 (Table 2, PAF 500 nM alone, 20,000 cells/well, 6 hours): 887.87 pg/mL
IL-8 (Table 3, PAF 100 nM alone, cells split to 5,000 cells/well four days prior, grown to 70% confluence): 355.36 pg/mL
